Measured values as given in patent US20180172712A1, “METHODS AND MATERIALS FOR ASSESSING HYDROGEN PEROXIDE ACCUMULATION IN CELLS” (Mayo Foundation for Medical Education and Research, priority 2015, published 2018).

Legend:
RPMI-8226 cells = assay: MTT assay in RPMI-8226 cells; type: cell-based, human; details: RPMI-8226, 3 days
Source text: (§1) The data were normalized to the DMSO-treated group.

XBP-1 mRNA = XBP-1 mRNA splicing by PCR; type: cell-based, human; details: lenalidomide 10 μM, 3 days
Protocol: (§2) Total RNA from HMCLs treated with lenalidomide was isolated using the Qiagen RNeasy mini kit. RNA (1 μg) was used for cDNA synthesis using iScript Reverse Transcription Supermix (Bio-Rad). Real-time polymerase chain reaction (PCR) was performed using the SYBR green method. The following primers were used for amplification: […]
(§3) The fold change of the mRNA expression was calculated from the difference between treated and untreated cells, after normalizing to an endogenous control (β-actin). Primers encompassing the spliced sequences in XBP1 mRNA were used for PCR amplification, and products were separated by electrophoresis through a 2.5% agarose gel and visualized by ethidium bromide staining. All reactions were conducted in triplicate.

MM.1Sres cells = assay: MTT assay in MM.1Sres cells; type: cell-based, human
Source text: as §1

IgL-λ dimers [1] = assay: IgL dimerization immunoblot under nonreducing conditions in MM.1S cells; type: cell-based, human; details: 3 hours, lenalidomide 10 μM or H2O2 25 μM
Source text: (§4) Proteins were transferred to polyvinylidene fluoride membranes (Bio-Rad).

[2] = test system: ER stress markers in OPM2-NT and OPM2-shCRBN cells; assay: ER stress immunoblot in OPM2-NT and OPM2-shCRBN cells; type: cell-based, human
Source text: as §4

Bip = Bip immunoblot in other isogenic HMCLs (MM.1S/MM.1Sres, KMS18-NT/KMS18-shCRBN); type: cell-based, human; details: CRBN-positive vs CRBN-negative cells, 3 days
Source text: as §4

[3] = test system: OPM2-NT and OPM2-shCRBN cells; assay: MTT assay in OPM2-NT and OPM2-shCRBN cells; type: cell-based, human; details: OPM2-NT vs OPM2-shCRBN, increasing concentrations, 3 days
Source text: as §1

KMS11 cells = assay: MTT assay in KMS11 cells; type: cell-based, human; details: KMS11, 3 days
Source text: as §1

MM.1S cells [4] = assay: MTT assay in MM.1S cells; type: cell-based, human; details: 3 days
Source text: as §1

JJN3 cells = assay: MTT assay in JJN3 cells; type: cell-based, human; details: JJN3, 3 days
Source text: as §1

MM.1S cells [5] = assay: Intracellular ROS by DCFDA flow cytometry; type: cell-based, human; details: MM.1S cells pretreated with DCFDA 30 minutes; lenalidomide 10 μM vs vehicle
Protocol: Post-treatment reactive oxygen species (ROS) levels were determined using the cell-permeable fluorogenic probe DCFDA (Invitrogen Biosciences). Briefly, million cells per 2 mL (2 million cells in 4 mL medium) were cultured overnight. DCFDA (50 μM) was added to suspended cells and incubated for 30 minutes in the dark. Cells were collected and washed once with phosphate-buffered saline (PBS) and split into 2 FACS tubes. […] Cells were analyzed using a FACSCalibur system (Becton and Dickinson), with excitation and emission spectra set at 488 and 530 nm, respectively. CellQuest software was used to calculate H2O2 production by measuring the increase in mean fluorescence.

IgL-λ = IgL-λ secretion and intracellular level (immunoblot, ELISA) in OPM2-NT and OPM2-shCRBN cells; type: cell-based, human
Source text: as §4

IgL-λ mRNA = assay: Real-time PCR for IgL-λ mRNA; type: cell-based, human; details: FIG. 8B; 10, 30, or 50 μM, 72 hours
Protocol: as §2, §3

Horseradish peroxidase = molecular target: T1, Horseradish peroxidase (Armoracia rusticana, UniProt P00433); assay: HRP/Amplex Red in-vitro assay; type: biochemical; details: 10 μM drug, 5 μM H2O2, 30 minutes
T1 sequence (P00433 31-338 limits assumed): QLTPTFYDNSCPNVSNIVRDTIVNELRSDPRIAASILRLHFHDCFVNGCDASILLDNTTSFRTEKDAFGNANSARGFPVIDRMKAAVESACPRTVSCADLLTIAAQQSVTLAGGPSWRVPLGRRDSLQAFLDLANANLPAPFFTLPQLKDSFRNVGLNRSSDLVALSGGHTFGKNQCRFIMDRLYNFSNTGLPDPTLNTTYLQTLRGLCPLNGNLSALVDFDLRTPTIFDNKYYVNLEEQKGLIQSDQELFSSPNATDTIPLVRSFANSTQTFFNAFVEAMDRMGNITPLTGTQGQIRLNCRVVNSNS
Protocol: (§5) After 30 minutes, plates were read for fluorescence at 530 nm excitation and 590 nm emission with plate reader (Biotek Cytation3). For determining intra-cellular peroxidase activity by Amplex Red, cells were washed and mixed with Amplex Red reagent (50 μM) in HBSS buffer and plated 100,000 cells per well into 96 well plate, four wells for each condition. […] The DMSO control included H2O2 (100 μM). […] After specific time periods, the plates were read for fluorescence intensity using plate reader.

IgL-λ dimers [6] = assay: IgL dimerization immunoblot in MM.1S and MM.1Sres cells; type: cell-based, human; details: MM.1S and MM.1Sres treated for 3 days
Source text: as §4

[7] = test system: intracellular peroxidases in HMCLs; assay: Intra-cellular peroxidase activity by Amplex Red in HMCLs; type: cell-based, human; details: different myeloma cell lines; thalidomide 20 μM, lenalidomide 20 μM, pomalidomide 10 μM; 40 to 60 minutes
Protocol: as §5

- decomposition of H2O2 by horseradish peroxidase (Amplex Red to resorufin) (Horseradish peroxidase): inhibited
- intracellular H2O2 decomposition mediated by peroxidases [7]: inhibit intracellular H2O2 decomposition
SMILES: Nc1cccc2c1CN(C1CCC(=O)NC1=O)C2=O (stereo not drawn) [lenalidomide]
- sensitivity of cell line (MTT) (RPMI-8226 cells): resistant
- mRNA splicing of XBP-1 (XBP-1 mRNA): more evident in OPM2-NT cells than CRBN-knockdown cells
- sensitivity of cell line (MTT) (MM.1Sres cells): resistant
- formation of IgL-λ dimers (IgL-λ dimers [1]): increased formation of IgL-λ dimers
- ER stress response ([2]; 3 days, increasing concentrations (10, 30, or 50 μM)): an ER stress response occurred in OPM2-NT cells, but not in CRBN-knockdown cells
- GRP78/BiP protein ([2]; CRBN-positive cells, 3 days): accumulated
- IRE1α protein level ([2]; CRBN-positive cells, 3 days): markedly decreased
- p53 protein levels ([2]; CRBN-positive cells, 3 days): decreased
- p53 and PARP levels ([2]; CRBN-positive lenalidomide-sensitive cells, 6 days): complete degradation of p53 and PARP proteins
- Bip protein (Bip): accumulation of Bip protein in CRBN-positive cells, but not in CRBN-negative cells
- CRBN dependence of cytotoxicity (MTT) [3]: CRBN dependent
- sensitivity of cell line (MTT) (KMS11 cells): sensitive
- sensitivity of cell line (MTT) (MM.1S cells [4]): hypersensitive
- sensitivity of cell line (MTT) (JJN3 cells): resistant
- intracellular H2O2 (DCF fluorescence by FACS) (MM.1S cells [5]): increasing intracellular H2O2
- total intracellular IgL protein (IgL-λ; FIG. 8C, 72 hours): increased total intracellular IgL protein
- secretion of IgG-λ / IgL-λ (IgL-λ; FIG. 8D-E): decreased secretion
- IgL-λ mRNA expression (IgL-λ mRNA): unchanged
- IgL-λ dimers (IgL-λ dimers [6]): IgL-λ dimers were observed only in MM.1S
